# In patent US10717968B2, “Polymerases for nucleotide analogue incorporation” (Pacific Biosciences of California, Inc., priority 2005, dated 2020):
# Legend:
# Assay type in all cases: biochemical
# [1] = system: Alexa488-O-dA4P, FAM-Alexa532-O-dG4P, FAM-Alexa594-O-dT4P, Alexa633-O-dC4P; assay: Screening: rate with set of four nucleotide analogues; details: four analogues at 10 μM each, 1 mM MnCl2
# A633dC4P = assay: Screening: rate with A633dC4P and dA, dG, dTTP; details: for Rate High: 25 μM A633dC4P with 20 μM dA; for Ratio (Low/High): (rate at 5 μM A633dC4P)/(rate at 25 μM A633dC4P), each with 20 μM dA, 1 mM MnCl2, higher ratio = lower Km
# A568dC4P [2] = assay: Nucleotide analogue concentration dependence of the polymerization rate, A568dC4P; details: circular AGTC template; dTTP, dATP, dGTP 20 μM each
# Method: (§1) The most promising polymerase mutants are characterized by determination of the polymerization rate and Km for A488dC4P and A568dC4P and a subset of natural nucleotides (dATP, dGTP and dTTP), using a circular template (AGTC). Velocity is measured at several different concentrations of the analogs, A488dC4P (a representative good substrate) and A568dC4P (a representative less preferred substrate).
# (§2) The Φ29 DNA polymerase (parental enzyme or mutant) was preincubated with a DNA template (72 nucleotide circular DNA including mostly repetitive sequence AGTC) with annealed DNA primer. The preincubation mix includes also three native nucleotides (dTTP, dATP and dGTP 20 μM each) and various concentrations of the terminally labeled analogue (A488dC4P or A568dC4P). All subsequent steps were basically as described above in the section entitled “Assay with a single analogue at low concentration (10 μM) and three native nucleotides.” An average length of the DNA products generated with DNA polymerase at an individual analogue concentration was determined, and the results were fitted with the equation k=kel*[S]*(Kd+[S])^−1 where k is the observed polymerization rate, kel is the polymerization rate at saturating substrate concentration (kel measures incorporation of multiple residues), and [S] is substrate concentration. See, e.g., Table 2 Columns C, D, E, and F.
# A488dC4P [3] = assay: Assay with a single analogue at low concentration (10 μM) and three native nucleotides, A488dC4P; details: single analogue at 10 μM and three native nucleotides
# Method: (§3) The Φ29 DNA polymerase (parental enzyme or mutant) was preincubated with DNA template (72 nucleotide circular DNA including mostly repetitive sequence AGTC) with annealed DNA primer. The preincubation mix includes three native nucleotides (dTTP, dATP and dGTP) and a terminal labeled nucleotide analogue (A488dC4P or A568dC4P) at 10 μM concentration. After a short preincubation, the reaction was started with MnCl2. The reaction was stopped with EDTA, and the products were separated using agarose gel electrophoresis and stained with SYBR Gold (Invitrogen). The average length of the DNA generated with DNA polymerase was determined and used to estimate the polymerization rate. See, e.g., Table 2 Columns G and H.
# [4] = system: DNA template (72 nucleotide circular DNA) with annealed DNA primer; assay: Processivity assay; details: dNTP, MnCl2, heparin trap, 20 min; 1.0 minus Poff
# Excerpt: The processivity (dissociation/kb) of the polymerase is estimated in a primer extension reaction performed in the presence of “Trap” (unlabeled competitor DNA or heparin). The processivity assay is designed to select mutants that retain the capability to synthesize a long DNA product in a continuous polymerization run (without polymerization reinitiation) with natural nucleotides. Mutants with a significant decrease in processivity are not selected for the next step.
# The Φ29 DNA polymerase (parental enzyme or mutant) was preincubated with DNA template (72 nucleotide circular DNA including mostly repetitive sequence AGTC) with annealed DNA primer. After a short preincubation, the reaction was started with a starting mix including MnCl2, dNTP and heparin. Including the heparin in the reaction prevents polymerization from reinitiating after the polymerase dissociates from the template/primer, so that all generated DNA products are a result of continuous polymerization runs. After 20 min incubation, the reaction was stopped with EDTA and the products were separated using agarose gel electrophoresis and stained with SYBR Gold (Invitrogen). The DNA products were analyzed basically as described in Bibillo A, Eickbush T H. J Biol Chem. 2002 Sep. 20; 277(38):34836-45, Epub 2002 Jul. 5. The results were fitted with single exponential equation A*exp(−Poff*kb) where A is amplitude, Poff is the probability of premature polymerase dissociation, and kb is DNA length (1000 nucleotides). The probability of chain elongation (processivity) can be readily calculated by subtracting the Poff value from 1.0. See, e.g., Table 2 Column J.
# dTTP, dATP, dGTP = assay: Assay with three native nucleotides (dGTP, dTTP and dATP); details: three native nucleotides at 20 μM; circular template, no G residues
# Method: as §3
# The Φ29 DNA polymerase (parental enzyme or mutant) was preincubated with DNA template (circular DNA including mostly repetitive sequence CAT, no G residues) with annealed DNA primer; the preincubation mix includes three native nucleotides (dTTP, dATP and dGTP). All subsequent steps were basically as described above in the section entitled “Assay with a single analogue at low concentration (10 μM) and three native nucleotides.” See, e.g., Table 2 Column B.
# A568dC4P [5] = assay: Assay with a single analogue at low concentration (10 μM) and three native nucleotides, A568dC4P; details: single analogue at 10 μM and three native nucleotides
# Method: as §3
# [6] = system: A488dA4P, A633dC4P, A546dG4P, A594dT4P; assay: Assay with four terminally labeled nucleotide analogs; details: four terminally labeled analogs all at 10 μM
# Method: Polymerization rate (bases/min) with four analogues at 10 μM (A488dA4P, A633dC4P, A546dG4P and A594dT4P) and circular template (AGTC, a 72mer circular template largely consisting of a repeating AGTC motif) is determined.
# The procedure is basically as described above in the section entitled “Assay with a single analogue at low concentration (10 μM) and three native nucleotides,” with the exception that in this assay all nucleotides are terminally labeled (A488dA4P, A633dC4P, A546dG4P, A594dT4P all at 10 μM). See, e.g., Table 2 Column I.
# A488dC4P [7] = assay: Nucleotide analogue concentration dependence of the polymerization rate, A488dC4P; details: circular AGTC template; dTTP, dATP, dGTP 20 μM each
# Method: as §1, §2
# [8] = system: natural (native) nucleotides; assay: Initial characterization: specific activity with natural (native) nucleotides
# Method: The recombinant polymerase is initially evaluated on the quality of the protein preparation and basic catalytic activity. The polymerase's activity is analyzed with natural (native) nucleotides, and its specific activity (units/mg) is determined. Only catalytically competent mutants are selected for the next steps.
# Alexa633-O-dC4P = assay: Km and Vmax versus analogue Alexa633-O-dC4P; details: Alexa633-O-dC4P (A633dC4P)
# Method: Km and Vmax were determined for exemplary recombinant Phi29 polymerases and various nucleotide analogues.
Substance,Hz Rate [1] [Hz],Rate High (A633dC4P),Ratio (Low/High) (A633dC4P),"A568dC4P, kel (A568dC4P [2])",Km (A568dC4P [2]) [µM],"A488dC4P, V at 10 μM (A488dC4P [3])",Processivity [4] [kb^−1],"dTTP, dATP, dGTP (no G fork) V at 20 μM (dTTP, dATP, dGTP)","A568dC4P, V at 10 μM (A568dC4P [5])","A488dA4P, A633dC4P, A546dG4P, A594dT4P, V at 10 μM [6]","A488dC4P, kel (A488dC4P [7]) [bp/min]",Km (A488dC4P [7]) [µM],Specific Activity [8],Km (Alexa633-O-dC4P) [µM]
"D12A: GST-His tagged Phi29 polymerase with exonuclease-reducing D12A mutation, no background mutation [reference compound]",1.2,55.3,0.888,,,,,,,,,,,
E375A: His-tagged Phi29 polymerase with E375A and background N62D mutation,5.8,465.9,0.383,,,,,,,,,,,
E375Q: His-tagged Phi29 polymerase with E375Q and background N62D mutation,6.3,531.6,0.356,,,,,,,,,,,
GST-N62D: GST-His-S tagged Phi 29 DNA polymerase with exonuclease-reducing N62D mutation (SEQ ID NO:2); parental enzyme [reference compound],2.8,349.3,0.355,1660,74,346,0.9799,780,236,65,1200,20,,
"His-E486A-N62D: His-tagged Phi 29 polymerase with E486A and N62D mutations (SEQ ID NOs:9, 30)",1.0,152.5,0.441,,,303,0.9875,1690,118,15,,,"4,133,000 units/mg",
"His-E486D-N62D: His-tagged Phi 29 polymerase with E486D and N62D mutations (SEQ ID NOs:10, 31)",0.9,142.0,0.467,,,220,0.9885,,134,15,,,"11,634,000 units/mg",
"His-K135A-N62D: His-tagged Phi 29 polymerase with K135A and N62D mutations (SEQ ID NOs:3, 24)",1.6,272.0,0.412,,,292,0.9801,840,154,43,880,24,"12,454,000 units/mg",
"His-K512A-N62D: His-tagged Phi 29 polymerase with K512A and N62D mutations (SEQ ID NOs:11, 32)",1.4,347.7,0.335,,,359,0.9821,,196,34,,,"16,073,000 units/mg",
His-N62D: His-tagged N62D Phi 29 DNA polymerase; parental enzyme [reference compound],2.7,373.2,0.362,,,391,0.9754,750,237,68,1020,21,,
"His-NipTuck_1-N62D: His-tagged N62D Phi 29 polymerase with deletion of residues 505-525 (SEQ ID NOs:12, 33)",1.3,192.4,0.508,,,153,0.9585,660,116,24,520,24,"12,400,000 units/mg",
"L384R: His-tagged Phi29 polymerase with L384R and N62D mutations (SEQ ID NOs:8, 29)",−0,79.6,0.768,,,,,,,,,,,
"N62D: E375K: Phi 29 polymerase with E375K and N62D mutations (SEQ ID NOs:6, 27)",6.2,516.1,0.425,,,,,,,,,,,12
T15I N62D: His-tagged Phi29 polymerase with T15I and background N62D mutation (Table 5 r22),0.0,105.9,0.726,,,,,,,,,,,
"T15I: His-tagged Phi29 polymerase with T15I mutation only, no background mutation (Table 5 r13)",3.0,416.5,0.355,,,,,,,,,,,
